ChEMBL document CHEMBL1149699, “Structure-activity relationships of 3,4-dihydro-1H-quinazolin-2-one derivatives as potential CDK5 inhibitors” (Bioorg Med Chem, 2007)

Key:
[1] = molecular target: T1, Cyclin-dependent kinase 5/CDK5 activator 1 (Homo sapiens, UniProt Q00535); assay: Inhibition of human His-tagged p25/CDK5; type: protein-complex assay
[2] = molecular target: T1, Cyclin-dependent kinase 5/CDK5 activator 1; assay: Inhibition of human CDK5/p25 by HTRF assay; type: protein-complex assay
[3] = Inhibition of human His-tagged cyclin 2/CDK2 by HTRF assay
[4] = Inhibition of human PKA
[5] = molecular target: Mitogen-activated protein kinase 14 (Homo sapiens, UniProt Q16539); assay: Inhibition of human p38 alpha
[6] = molecular target: Mitogen-activated protein kinase 9 (Homo sapiens, UniProt P45984); assay: Inhibition of human JNK2
[7] = molecular target: Mitogen-activated protein kinase 3 (Homo sapiens, UniProt P27361); assay: Inhibition of human Erk1
Chain of Mitogen-activated protein kinase 3 (P27361 whole entry): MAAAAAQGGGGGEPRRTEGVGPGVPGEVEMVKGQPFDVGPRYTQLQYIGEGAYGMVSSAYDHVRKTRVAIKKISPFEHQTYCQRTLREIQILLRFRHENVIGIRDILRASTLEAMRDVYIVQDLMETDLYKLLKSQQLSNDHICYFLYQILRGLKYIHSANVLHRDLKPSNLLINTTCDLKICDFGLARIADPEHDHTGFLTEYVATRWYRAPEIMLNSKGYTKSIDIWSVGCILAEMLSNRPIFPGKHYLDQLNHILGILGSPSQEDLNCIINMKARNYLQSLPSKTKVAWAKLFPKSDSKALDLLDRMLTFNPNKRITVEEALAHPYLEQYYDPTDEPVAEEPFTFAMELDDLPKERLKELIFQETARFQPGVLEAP

Chain of Mitogen-activated protein kinase 9 (P45984 whole entry): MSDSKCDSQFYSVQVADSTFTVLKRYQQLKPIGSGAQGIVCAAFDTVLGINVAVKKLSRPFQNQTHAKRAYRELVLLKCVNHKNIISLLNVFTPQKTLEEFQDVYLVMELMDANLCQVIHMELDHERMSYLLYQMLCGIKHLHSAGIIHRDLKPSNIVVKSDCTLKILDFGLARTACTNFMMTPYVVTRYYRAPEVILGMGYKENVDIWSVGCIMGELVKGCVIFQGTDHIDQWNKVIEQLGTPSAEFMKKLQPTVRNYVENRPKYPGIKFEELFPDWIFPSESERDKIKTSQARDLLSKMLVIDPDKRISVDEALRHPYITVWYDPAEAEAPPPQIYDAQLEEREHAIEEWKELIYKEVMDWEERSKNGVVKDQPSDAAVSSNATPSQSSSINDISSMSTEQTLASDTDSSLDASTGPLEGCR
T1 sequence (Q00535 whole entry): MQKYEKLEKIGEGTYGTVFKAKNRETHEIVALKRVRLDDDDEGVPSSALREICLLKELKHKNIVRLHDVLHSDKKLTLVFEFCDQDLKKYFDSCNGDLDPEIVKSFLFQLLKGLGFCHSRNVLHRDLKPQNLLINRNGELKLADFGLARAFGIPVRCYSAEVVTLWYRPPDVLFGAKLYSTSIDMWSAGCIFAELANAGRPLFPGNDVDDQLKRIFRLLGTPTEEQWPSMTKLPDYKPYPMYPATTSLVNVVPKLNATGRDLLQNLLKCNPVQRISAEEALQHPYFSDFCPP
T1 sequence (Q15078 whole entry, further chain): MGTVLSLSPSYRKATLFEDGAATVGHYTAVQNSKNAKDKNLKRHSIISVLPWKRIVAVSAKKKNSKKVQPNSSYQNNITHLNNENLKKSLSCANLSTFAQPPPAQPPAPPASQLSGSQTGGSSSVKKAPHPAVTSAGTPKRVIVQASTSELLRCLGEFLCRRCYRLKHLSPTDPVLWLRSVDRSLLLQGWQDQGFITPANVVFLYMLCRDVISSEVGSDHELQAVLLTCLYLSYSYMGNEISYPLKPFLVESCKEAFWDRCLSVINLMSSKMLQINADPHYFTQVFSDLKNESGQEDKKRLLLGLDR
Chain of Mitogen-activated protein kinase 14 (Q16539 whole entry): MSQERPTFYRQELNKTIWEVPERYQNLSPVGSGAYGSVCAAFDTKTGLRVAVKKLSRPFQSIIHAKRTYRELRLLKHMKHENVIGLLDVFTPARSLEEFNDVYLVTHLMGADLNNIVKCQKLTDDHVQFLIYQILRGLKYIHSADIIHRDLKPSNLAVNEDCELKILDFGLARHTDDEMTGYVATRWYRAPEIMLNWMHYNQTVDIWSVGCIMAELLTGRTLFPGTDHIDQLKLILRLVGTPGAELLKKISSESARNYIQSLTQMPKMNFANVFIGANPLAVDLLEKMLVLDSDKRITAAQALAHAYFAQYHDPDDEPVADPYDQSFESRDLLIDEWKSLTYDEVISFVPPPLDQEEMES

Row | SMILES | IC50 [2] | further results
1 | CN1CCN(c2cccc(NC(=O)Nc3csc(-c4ccncc4)n3)n2)CC1 |  | IC50 [1]: 15 nM
2 | O=C1Nc2ccccc2CN1c1nc(-c2ccncc2)no1 | > 10000 nM | 
3 | O=C1Nc2ccccc2CN1c1nc(-c2cccnc2)cs1 |  | IC50 [1]: 399 nM
4 | O=C(Nc1ccccn1)Nc1csc(-c2ccncc2)n1 | 192 nM | 
5 | O=c1[nH]c2ccccc2c(=O)n1-c1csc(-c2ccncc2)n1 | > 10000 nM | 
6 | CCc1cc(-c2nc(N3Cc4ccccc4NC3=O)cs2)ccn1 |  | IC50 [1]: 746 nM
7 | O=C1Nc2ccccc2CN1c1cccc(-c2ccncc2)c1 | > 10000 nM | 
8 | O=C1Nc2ccccc2CN1c1nc(-c2ccncc2)ns1 | 616 nM | 
9 | O=C1Nc2ccccc2CN1c1nc(-c2ccncc2)cs1 | 77 nM | IC50 [1]: 77 nM
10 | O=C(Nc1ccccc1)Nc1csc(-c2ccncc2)n1 | 2990 nM | 
11 | O=c1[nH]c2ccccc2n1-c1csc(-c2ccncc2)n1 | 1160 nM | 
12 | O=C1Nc2ccccc2CN1c1ccc(-c2ccncc2)s1 | > 10000 nM | 
13 | O=C1Nc2ccccc2CN1c1nc(-c2ccccn2)cs1 |  | IC50 [1]: 7360 nM

Continued, in another order:

Row | IC50 [2] | SMILES | further results
14 | 228 nM | O=C1Nc2cccc(Br)c2CN1c1csc(-c2ccncc2)n1 | 
15 | 113 nM | O=C1Nc2cc(-c3ccccc3)ccc2CN1c1csc(-c2ccncc2)n1 | 
16 | 1260 nM | Cc1cccc2c1CN(c1csc(-c3ccncc3)n1)C(=O)N2 | 
17 | 362 nM | COc1cccc2c1CN(c1csc(-c3ccncc3)n1)C(=O)N2 | 
18 | 72 nM | O=C1Nc2ccc(F)cc2CN1c1csc(-c2ccncc2)n1 | 
19 | 1160 nM | CN1CCN(c2ccc3c(c2)CN(c2csc(-c4ccncc4)n2)C(=O)N3)CC1 | 
20 | 165 nM | Cc1ccc2c(c1)CN(c1csc(-c3ccncc3)n1)C(=O)N2 | 
21 | 79 nM | O=C1Nc2ccccc2CN1c1csc(-c2ccncc2)n1 | IC50 [3]: 142 nM; IC50 [1]: 79 nM; IC50 [4]: > 10000 nM; IC50 [5]: > 10000 nM; IC50 [6]: > 10000 nM; IC50 [7]: > 10000 nM
22 | 332 nM | O=C1Nc2cccc(Cl)c2CN1c1csc(-c2ccncc2)n1 | 
23 | 38 nM | O=C1Nc2cc(Br)ccc2CN1c1csc(-c2ccncc2)n1 | 
24 | 829 nM | CN1CCN(c2cccc3c2CN(c2csc(-c4ccncc4)n2)C(=O)N3)CC1 | 
25 | 16 nM | O=C1Nc2cc(F)ccc2CN1c1csc(-c2ccncc2)n1 | IC50 [3]: 52 nM; IC50 [1]: 16 nM; IC50 [4]: > 10000 nM; IC50 [5]: > 10000 nM; IC50 [6]: > 10000 nM; IC50 [7]: > 10000 nM
26 | 284 nM | O=C1Nc2cccc(CN3CCOCC3)c2CN1c1csc(-c2ccncc2)n1 | 
27 | 62 nM | O=C1Nc2cc(CN3CCOCC3)ccc2CN1c1csc(-c2ccncc2)n1 | IC50 [3]: 529 nM; IC50 [1]: 62 nM; IC50 [4]: > 10000 nM; IC50 [5]: > 10000 nM; IC50 [6]: > 10000 nM; IC50 [7]: > 10000 nM
28 | 240 nM | O=C1Nc2cccc(F)c2CN1c1csc(-c2ccncc2)n1 | 
